System: Myzus persicae
Test: Example 53: plum trees treated against Myzus persicae
Format: in vivo
Conditions: population on shoots, g a.i./ha/m crown height: Actara 33.5, I-4 48
Method: In four replications, plum trees of the cultivar “Angeleno” of a height of about 2.8 m are treated against Myzus persicae. The application is carried out using a high-pressure sprayer. Here, the active compound Example (I-4) (100 OD), in the stated amount, is tested against the commercial standard Actara (25 WG), at the stated application rate. The application rate is 500 l of water/ha/crown height in m.
Evaluation is carried out 6, 9, 12, 20 days after the treatment by rating the kill of the population on the shoots.

Q: `CCOC(=O)OC1=C(c2cc(C)ccc2C)C(=O)NC12CCC(OC)CC2` (centres unmarked) [Example (I-4)] was tested. Which “Kill (%) 6 d” value (6 d after treatment) did it give?
A: 96.4%

Q: And the “Kill (%) 9 d” value (9 d after treatment)?
A: 99.7%

Q: What about the “Kill (%) 12 d” value (12 d after treatment) of the same molecule?
A: 99.8%

Q: What about the “Kill (%) 20 d” value (20 d after treatment) of the same molecule?
A: 99.9%

Q: What about the “Kill (%) 27 d” value (27 d after treatment) of the same molecule?
A: 99.9%

Reference: US20090012152A1, “Use of Tetramic Acid Derivatives for Controlling Insects from the Genus of the Plane Lice (Sternorrhyncha)” (Bayer CropScience Aktiengesellschaft, priority 2005, published 2009)
